Results: PubChem BioAssay (NCI)
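Cells were grown in 96-well plates and exposed to each compound for 48 hours at five concentrations; endpoints were interpolated linearly between bracketing concentrations, or set to the highest concentration if not reached. At the GI50, growth is halved. The concentration for full growth arrest is given as TGI.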

Key:
Assay in all cases: NCI anticancer screen, dose series, 48 h
786-0 renal = system: 786-0 renal
A498 renal = system: A498 renal
A549 NSCLC = system: A549 NSCLC
ACHN renal = system: ACHN renal
BT-549 breast = system: BT-549 breast
CAKI-1 renal = system: CAKI-1 renal
CCRF-CEM leukemia = system: CCRF-CEM leukemia
COLO 205 colon = system: COLO 205 colon
DU-145 prostate = system: DU-145 prostate
EKVX NSCLC = system: EKVX NSCLC
HCC-2998 colon = system: HCC-2998 colon
HCT-116 colon = system: HCT-116 colon
HCT-15 colon = system: HCT-15 colon
HL-60(TB) leukemia = system: HL-60(TB) leukemia
HOP-62 NSCLC = system: HOP-62 NSCLC
HOP-92 NSCLC = system: HOP-92 NSCLC
HS 578T breast = system: HS 578T breast
HT29 colon = system: HT29 colon
IGROV1 ovarian = system: IGROV1 ovarian
K-562 leukemia = system: K-562 leukemia
KM12 colon = system: KM12 colon
M14 melanoma = system: M14 melanoma
MALME-3M melanoma = system: MALME-3M melanoma
MCF7 breast = system: MCF7 breast
MDA-MB-231 breast = system: MDA-MB-231 breast
MDA-MB-435 = system: MDA-MB-435
MDA-MB-468 breast = system: MDA-MB-468 breast
MOLT-4 leukemia = system: MOLT-4 leukemia
NCI-H226 lung = system: NCI-H226 lung
NCI-H23 lung = system: NCI-H23 lung
NCI-H460 lung = system: NCI-H460 lung
NCI-H522 lung = system: NCI-H522 lung
NCI/ADR-RES ovarian = system: NCI/ADR-RES ovarian
OVCAR-3 ovarian = system: OVCAR-3 ovarian
OVCAR-4 ovarian = system: OVCAR-4 ovarian
OVCAR-5 ovarian = system: OVCAR-5 ovarian
OVCAR-8 ovarian = system: OVCAR-8 ovarian
PC-3 prostate = system: PC-3 prostate
RPMI-8226 leukemia = system: RPMI-8226 leukemia
RXF 393 renal = system: RXF 393 renal
SF-268 CNS = system: SF-268 CNS
SF-295 CNS = system: SF-295 CNS
SF-539 CNS = system: SF-539 CNS
SK-MEL-2 melanoma = system: SK-MEL-2 melanoma
SK-MEL-28 melanoma = system: SK-MEL-28 melanoma
SK-MEL-5 melanoma = system: SK-MEL-5 melanoma
SK-OV-3 ovarian = system: SK-OV-3 ovarian
SN12C renal = system: SN12C renal
SNB-19 CNS = system: SNB-19 CNS
SNB-75 CNS = system: SNB-75 CNS
SR leukemia = system: SR leukemia
SW-620 colon = system: SW-620 colon
T-47D breast = system: T-47D breast
TK-10 renal = system: TK-10 renal
U251 CNS = system: U251 CNS
UACC-257 melanoma = system: UACC-257 melanoma
UACC-62 melanoma = system: UACC-62 melanoma
UO-31 renal = system: UO-31 renal

**Q.** Which results are given for COc1ccc2c(c1)c(-c1cc(N)n3nc(-c4cn(C)c5ccccc45)cc3n1)cn2C?
**A.** GI50 (786-0 renal): 1550 nM; TGI (786-0 renal): 2970 nM; GI50 (A498 renal): 1760 nM; TGI (A498 renal): 3270 nM; GI50 (A549 NSCLC): 1810 nM; TGI (A549 NSCLC): 3510 nM; GI50 (ACHN renal): 1650 nM; TGI (ACHN renal): 3020 nM; GI50 (BT-549 breast): 1870 nM; TGI (BT-549 breast): 3570 nM; GI50 (CAKI-1 renal): 1710 nM; TGI (CAKI-1 renal): 3140 nM; GI50 (CCRF-CEM leukemia): 864 nM; TGI (CCRF-CEM leukemia): 5380 nM; GI50 (COLO 205 colon): 1920 nM; TGI (COLO 205 colon): 3670 nM; GI50 (DU-145 prostate): 2050 nM; TGI (DU-145 prostate): 4010 nM; GI50 (EKVX NSCLC): 1460 nM; TGI (EKVX NSCLC): 3300 nM; GI50 (HCC-2998 colon): 2090 nM; TGI (HCC-2998 colon): 3650 nM; GI50 (HCT-116 colon): 1160 nM; TGI (HCT-116 colon): 2420 nM; GI50 (HCT-15 colon): 1040 nM; TGI (HCT-15 colon): 2680 nM; GI50 (HL-60(TB) leukemia): 1400 nM; TGI (HL-60(TB) leukemia): 3940 nM; GI50 (HOP-62 NSCLC): 1730 nM; TGI (HOP-62 NSCLC): 3350 nM; GI50 (HOP-92 NSCLC): 1760 nM; TGI (HOP-92 NSCLC): 3410 nM; GI50 (HS 578T breast): 2180 nM; TGI (HS 578T breast): 4770 nM; GI50 (HT29 colon): 1860 nM; TGI (HT29 colon): 3380 nM; GI50 (IGROV1 ovarian): 1730 nM; TGI (IGROV1 ovarian): 3250 nM; GI50 (K-562 leukemia): 401 nM; TGI (K-562 leukemia): 4500 nM; GI50 (KM12 colon): 2100 nM; TGI (KM12 colon): 4480 nM; GI50 (M14 melanoma): 1850 nM; TGI (M14 melanoma): 3590 nM; GI50 (MALME-3M melanoma): 1700 nM; TGI (MALME-3M melanoma): 3090 nM; GI50 (MCF7 breast): 934 nM; TGI (MCF7 breast): 2520 nM; GI50 (MDA-MB-231 breast): 1820 nM; TGI (MDA-MB-231 breast): 3270 nM; GI50 (MDA-MB-435): 1760 nM; TGI (MDA-MB-435): 3210 nM; GI50 (MDA-MB-468 breast): 1670 nM; TGI (MDA-MB-468 breast): 3310 nM; GI50 (MOLT-4 leukemia): 1690 nM; TGI (MOLT-4 leukemia): 5410 nM; GI50 (NCI-H226 lung): 2040 nM; TGI (NCI-H226 lung): 4930 nM; GI50 (NCI-H23 lung): 1970 nM; TGI (NCI-H23 lung): 4090 nM; GI50 (NCI-H460 lung): 1900 nM; TGI (NCI-H460 lung): 3600 nM; GI50 (NCI-H522 lung): 1650 nM; TGI (NCI-H522 lung): 3150 nM; GI50 (NCI/ADR-RES ovarian): 2030 nM; TGI (NCI/ADR-RES ovarian): 4180 nM; GI50 (OVCAR-3 ovarian): 1940 nM; TGI (OVCAR-3 ovarian): 3680 nM; GI50 (OVCAR-4 ovarian): 1820 nM; TGI (OVCAR-4 ovarian): 3280 nM; GI50 (OVCAR-5 ovarian): 1950 nM; TGI (OVCAR-5 ovarian): 3850 nM; GI50 (OVCAR-8 ovarian): 1880 nM; TGI (OVCAR-8 ovarian): 3530 nM; GI50 (PC-3 prostate): 1800 nM; TGI (PC-3 prostate): 3690 nM; GI50 (RPMI-8226 leukemia): 2080 nM; TGI (RPMI-8226 leukemia): 6070 nM; GI50 (RXF 393 renal): 1850 nM; TGI (RXF 393 renal): 3410 nM; GI50 (SF-268 CNS): 1970 nM; TGI (SF-268 CNS): 4080 nM; GI50 (SF-295 CNS): 1780 nM; TGI (SF-295 CNS): 3430 nM; GI50 (SF-539 CNS): 1700 nM; TGI (SF-539 CNS): 3190 nM; GI50 (SK-MEL-2 melanoma): 1700 nM; TGI (SK-MEL-2 melanoma): 3230 nM; GI50 (SK-MEL-28 melanoma): 1800 nM; TGI (SK-MEL-28 melanoma): 3320 nM; GI50 (SK-MEL-5 melanoma): 1810 nM; TGI (SK-MEL-5 melanoma): 3230 nM; GI50 (SK-OV-3 ovarian): 1920 nM; TGI (SK-OV-3 ovarian): 3510 nM; GI50 (SN12C renal): 1660 nM; TGI (SN12C renal): 3050 nM; GI50 (SNB-19 CNS): 2180 nM; TGI (SNB-19 CNS): 5000 nM; GI50 (SNB-75 CNS): 1430 nM; TGI (SNB-75 CNS): 2800 nM; GI50 (SR leukemia): 288 nM; TGI (SR leukemia): 1130 nM; GI50 (SW-620 colon): 1800 nM; TGI (SW-620 colon): 3600 nM; GI50 (T-47D breast): 1940 nM; TGI (T-47D breast): 4150 nM; GI50 (TK-10 renal): 1910 nM; TGI (TK-10 renal): 3360 nM; GI50 (U251 CNS): 1840 nM; TGI (U251 CNS): 3440 nM; GI50 (UACC-257 melanoma): 1770 nM; TGI (UACC-257 melanoma): 3260 nM; GI50 (UACC-62 melanoma): 1730 nM; TGI (UACC-62 melanoma): 3140 nM; GI50 (UO-31 renal): 1590 nM; TGI (UO-31 renal): 2980 nM
